Results reported in US20110207789A1, “METHODS RELATED TO CASEIN KINASE II (CK2) INHIBITORS AND THE USE OF PURINOSOME-DISRUPTING CK2 INHIBITORS FOR ANTI-CANCER THERAPY AGENTS” (priority 2010, published 2011).
Like-named read-outs stand apart in the source and are kept apart here. Numbered stars: 1 amine (or outer) side, 2 acyl side, 3 side chain; on linkers, the order of the positions; unused ones are H or OH. Bridge positions count the residues as written; N and C are the ends. Square brackets hold non-standard residues; d marks the D form. Peptide text beside a SMILES is read from it. Trp(2-yl) = O=C([C@H](Cc1c([*:3])[nH]c2ccccc12)N[*:1])[*:2]; Leu(4R-OH,5-OH) = C[C@](O)(CO)C[C@H](N)C(=O)O; cisHyp = O=C(O)[C@@H]1C[C@H](O)CN1

How the values were obtained:
Type in all cases: cell-based
[1] = tested on: HeLa cells; assay: Label-free Epic DMR assay in HeLa cells cultured in purine depleted medium; conditions: TBB 100 μM, DMAT 25 μM
Source text: HeLa cells were obtained from American Type Cell Culture (Manassas, Va.). This cervical cancer cell line was maintained in standard serum medium (i.e., minimum essential medium (MEM) (Invitrogen) supplemented with 10% fetal bovine serum (FBS) and 1% Penicillin/streptomycin). To investigate the effects of purine depletion on the purinosome formation and dissociation, HeLa cells were maintained for at least two passages in “purine-depleted medium” prior cell assays. The purine depleted medium is a medium consisting of Roswell Park Memorial Institute 1640 (RPMI 1640) supplemented with dialyzed 5% FBS […]. FBS was dialyzed against 0.9% NaCl at 4° C. for ˜2 days using a 25 kDa MWCO dialysis membrane to remove purines. This process completely removes the purines normally present in FBS. […]
For biosensor cellular assays, compound solutions were made by diluting the stored concentrated solutions with the HBSS (1× Hanks balanced salt solution, plus 20 mM Hepes, pH 7.1), and transferred into a 384 well polypropylene compound storage plate to prepare a compound source plate. […] Both the cell assay plate and the compound source plate(s) were then incubated in the hotel of the reader system. After incubation the baseline wavelengths of all biosensors in the cell assay microplate were recorded and normalized to zero. […]

[2] = tested on: HeLa cells; assay: Label-free Epic RWG biosensor DMR assay in HeLa cells cultured in regular serum medium; conditions: for Type of DMR signal triggered by the compound alone: HeLa cells, regular serum medium, high confluency; for EC50: Homo sapiens, synchronized HeLa cells, 25,000 cells per well; for Classification as purinosome promoting or disrupting CK2 inhibitor: from DMR signals in HeLa cells; for Effect on purinosome complexes in quiescent cells: high seeding density; for Effect on purinosome complexes in proliferating cells: low seeding density; for Effect of pretreatment on the TBB DMR response / Effect of pretreatment on the DMAT DMR response: pretreatment about 1 hr, modulators 10 μM; for Effect of pretreatment on the TBB DMR response: then TBB 50 μM; for Effect of pretreatment on the TBB DMR response / Sensitivity of the DMR signal to cellular status / Effect of pretreatment on the sequential TBB response after DMAT / Effect of pretreatment on the sequential DMAT response after TBB: DMAT 25 μM; for Sensitivity of the DMR signal to cellular status: three seeding densities (5,000, 10,000, 20,000 cells per well), TBB 100 μM; for Effect of pretreatment on the DMAT DMR response: then DMAT 25 μM; for Effect of pretreatment on the DMAT DMR response / Effect of pretreatment on the sequential TBB response after DMAT / Effect of pretreatment on the sequential DMAT response after TBB: TBB 50 μM; for Effect of pretreatment on the sequential TBB response after DMAT / Effect of pretreatment on the sequential DMAT response after TBB: order modulator (10 μM), each step about 1 hr
Source text: HeLa cells were obtained from American Type Cell Culture (Manassas, Va.). This cervical cancer cell line was maintained in standard serum medium (i.e., minimum essential medium (MEM) (Invitrogen) supplemented with 10% fetal bovine serum (FBS) and 1% Penicillin/streptomycin). To investigate the effects of purine depletion on the purinosome formation and dissociation, HeLa cells were maintained for at least two passages in “purine-depleted medium” prior cell assays. […] FBS was dialyzed against 0.9% NaCl at 4° C. for ˜2 days using a 25 kDa MWCO dialysis membrane to remove purines. This process completely removes the purines normally present in FBS.
Cells were typically grown using ˜1 to 2×10^4 cells per well at passage 3 to 15 suspended in 50 μl of the corresponding culture medium in the biosensor microplate, and were cultured at 37° C. under air/5% CO2 for ˜1 day. The confluency for all cells at the time of assays was ˜100%.
Epic® wavelength interrogation system (Corning Inc., Corning, N.Y.) was used for whole cell sensing. This system consists of a temperature-control unit, an optical detection unit, and an on-board liquid handling unit with robotics. The detection unit is centered on integrated fiber optics, and enables kinetic measures of cellular responses with a time interval of ˜15sec. The compound solutions were introduced by using the on-board liquid handling unit (i.e., pippetting).
(§1) For biosensor cellular assays, compound solutions were made by diluting the stored concentrated solutions with the HBSS (1× Hanks balanced salt solution, plus 20 mM Hepes, pH 7.1), and transferred into a 384 well polypropylene compound storage plate to prepare a compound source plate. Two compound source plates were made separately when a two-step assay was performed. In parallel, the cells were washed twice with the HBSS and maintained in 30 μl of the HBSS to prepare a cell assay plate. Both the cell assay plate and the compound source plate(s) were then incubated in the hotel of the reader system. After incubation the baseline wavelengths of all biosensors in the cell assay microplate were recorded and normalized to zero. Afterwards, a 2 to 10 min continuous recording was carried out to establish a baseline, and to ensure that the cells reached a steady state. Cellular responses were then triggered by transferring 10 μl of the compound solutions into the cell assay plate using the on-board liquid handler.
All studies were carried out at a controlled temperature (28° C.). At least two independent sets of experiments, each with at least three replicates, were performed.

[3] = tested on: purinosome complexes; assay: Fluorescence imaging of purinosome complexes, transient transfection of fluorescent purine synthesis enzymes; conditions: purine depleted medium cultured cells, low confluency (~50%); data not shown
Source text: The inconsistency in the action of TBB between fluorescence imaging and label-free cellular assays can be due to that confocal fluorescence imaging is largely single cell-based, while label-free assay is largely population cells-based, as well as different confluencies used in both assays.

[4] = tested on: HT29 cells; assay: TBB-mediated DMR signal in HT29 cells; conditions: 10 μM TBB, highly confluent cells
Description: as §1, with “All other cell lines were obtained from American Type Cell Culture (Manassas, VA) and were cultured under corresponding standard culture conditions, according to the protocol recommended by the supplier. Cells were typically grown using ˜1 to 2×10^4 cells per well at passage 3 to 15 suspended in 50 μl of the corresponding culture medium in the biosensor microplate, and were cultured at 37° C. under air/5% CO2 for ˜1 day. The confluency for all cells at the time of assays was ˜100%. For” for “For”, “Cellular responses were then triggered by transferring 10 μl of the compound solutions into the cell assay plate using the on-board liquid handler.” left out

SMILES | Type of DMR signal triggered by the compound alone [2] | Classification as purinosome promoting or disrupting CK2 inhibitor [2] | Effect of pretreatment on the TBB DMR response [2] | Effect of pretreatment on the DMAT DMR response [2] | Effect of pretreatment on the sequential TBB response after DMAT [2] | also measured
CN(C)c1nc2c(Br)c(Br)c(Br)c(Br)c2[nH]1 [DMAT, 2-Dimethylamino-4,5,6,7-tetrabromo-1H-benzimidazole] | P-DMR | purinosome promoting CK2 inhibitors | N-DMR similar to the buffer treated cells |  |  | Type of DMR signal in purine depleted culture [1]: P-DMR; EC50 ([2]; dependent on the time points after stimulation (6 min and 50 min), read-out: EC50 of dose-dependent P-DMR response): 5 to 22 µM; Effect on purinosome complexes in quiescent cells [2]: promotes the further formation of purinosome complexes; Effect on purinosome complexes in proliferating cells [2]: promote the formation of purinosomes; Sensitivity of the DMR signal to cellular status [2]: insensitive to cellular status; Effect on purinosome complexes by fluorescence imaging [3]: formation of purinosome complexes
OC[C@H]1O[C@@H](n2cnc3cc(Cl)c(Cl)cc32)[C@H](O)[C@@H]1O [DRB, 5,6-Dichlorobenzimidazole 1-(β-D-ribofuranoside] | DMR signals similar to the DMAT response | purinosome promoting CK2 inhibitors | slightly potentiated | desensitized |  | 
Brc1c(Br)c(Br)c2[nH]nnc2c1Br [TBB, 4,5,6,7-tetrabromobenzotriazole] | N-DMR | pruinosome disrupting CK2 inhibitors |  | slightly potentiated |  | Type of DMR signal in purine depleted culture [1]: P-DMR; TBB DMR signal in HT29 cells [4]: an initial P-DMR followed by a N-DMR; EC50 ([2]; 50 min, amplitude 50 min after stimulation, read-out: EC50 of dose-dependent N-DMR signal): 25 µM; Effect on purinosome complexes in quiescent cells [2]: causes the disassembly of basal purinosome complexes; Effect on purinosome complexes in proliferating cells [2]: promote the formation of purinosomes; Sensitivity of the DMR signal to cellular status [2]: dramatically sensitive to cellular status; Effect on purinosome complexes by fluorescence imaging [3]: disassembly of purinsome complexes
O=C(O)/C=C/c1cc(Br)c(Br)c(Br)c1Br [TBCA, Tetrabromocinnamic Acid] | DMR signals similar to the DMAT response | purinosome promoting CK2 inhibitors | slightly potentiated | desensitized |  | 
O=c1cc(-c2ccc(O)cc2)oc2cc(O)cc(O)c12 [apigenin] | DMR signals similar to the DMAT response | purinosome promoting CK2 inhibitors |  |  |  | 
Clc1cccc(Cl)c1N=C1NCCN1 [clonidine] |  |  | dose-dependently potentiated |  |  | 
C/C1=C/C(=O)O[C@@H]2C[C@@H](CC[C@H](C)/C=C\C=C\CC1)O[C@@](O)([C@@H]1CSC(=O)N1)C2 [latrunculin A] |  |  | completely inhibiting the early DMR event | attenuated | altered | Effect of pretreatment on the sequential DMAT response after TBB [2]: smaller DMAT response
COC(=O)Nc1nc2ccc(C(=O)c3cccs3)cc2[nH]1 [nocodazole] |  |  | reversed | potentiated | slightly suppressed | Effect of pretreatment on the sequential DMAT response after TBB [2]: suppression
Cc1cc(C(C)(C)C)c(O)c(C)c1CC1=NCCN1 [oxymetazoline] | Gi-like DMR signal |  |  | attenuated | potentiation | 
C[C@@H]1NC(=O)[C@H](C[C@@](C)(O)CO)NC(=O)[C@@H]2Cc3c([nH]c4ccccc34)SC[C@H](NC(=O)[C@@H]([C@H](C)O)NC1=O)C(=O)N1C[C@@H](O)C[C@H]1C(=O)N[C@@H](C)C(=O)N2 [phalloidin] (cyclo(A[dT]C[cisHyp]A[Trp(2-yl)][Leu(4R-OH,5-OH)]); thioether 3-6) |  |  | little impact | little impact |  | 
CC(C)(C)NCC(O)c1cc(O)cc(O)c1 (stereo not drawn) [terbutaline] | Gs-like DMR signal |  |  | little or no impact | little or no impact | 
CC[C@]1(O)C[C@@H]2CN(CCc3c([nH]c4ccccc34)[C@@](C(=O)OC)(c3cc4c(cc3OC)N(C)[C@H]3[C@@](O)(C(=O)OC)[C@H](OC(C)=O)[C@]5(CC)C=CCN6CC[C@]43[C@@H]65)C2)C1 [vinblastine] |  |  | reversed |  |  | Effect of pretreatment on the sequential DMAT response after TBB [2]: suppression
